Assay results published in ChEMBL document CHEMBL3870316, “Design, synthesis and structure-activity relationships of novel 4-phenoxyquinoline derivatives containing 1,2,4-triazolone moiety as c-Met kinase inhibitors” (Eur J Med Chem, 2016).

Tests used:
[1] = Cytotoxicity against c-Met over-expressed human HT-29 cells assessed as cell growth inhibition after 72 hrs by MTT assay; conditions: HT-29, 72 h
[2] = Cytotoxicity against c-Met over-expressed human H460 cells assessed as cell growth inhibition after 72 hrs by MTT assay; conditions: NCI-H460, 72 h
[3] = Cytotoxicity against c-Met over-expressed human A549 cells assessed as cell growth inhibition after 72 hrs by MTT assay; conditions: A549, 72 h
[4] = Cytotoxicity against c-Met over-expressed human MKN45 cells assessed as cell growth inhibition after 72 hrs by MTT assay; conditions: MKN-45, 72 h
[5] = molecular target: Hepatocyte growth factor receptor (Homo sapiens, UniProt P08581); experiment: Inhibition of c-MET (unknown origin) using poly(Glu, Tyr)4:1 as substrate after 30 mins by HTRF assay
[6] = molecular target: Mast/stem cell growth factor receptor Kit (Homo sapiens, UniProt P10721); experiment: Inhibition of c-Kit (unknown origin) after 30 mins by HTRF assay
[7] = molecular target: T1, Receptor-type tyrosine-protein kinase FLT3 (Homo sapiens, UniProt P36888); experiment: Inhibition of FLT3 (unknown origin) after 30 mins by HTRF assay
T1 sequence (P36888 whole entry): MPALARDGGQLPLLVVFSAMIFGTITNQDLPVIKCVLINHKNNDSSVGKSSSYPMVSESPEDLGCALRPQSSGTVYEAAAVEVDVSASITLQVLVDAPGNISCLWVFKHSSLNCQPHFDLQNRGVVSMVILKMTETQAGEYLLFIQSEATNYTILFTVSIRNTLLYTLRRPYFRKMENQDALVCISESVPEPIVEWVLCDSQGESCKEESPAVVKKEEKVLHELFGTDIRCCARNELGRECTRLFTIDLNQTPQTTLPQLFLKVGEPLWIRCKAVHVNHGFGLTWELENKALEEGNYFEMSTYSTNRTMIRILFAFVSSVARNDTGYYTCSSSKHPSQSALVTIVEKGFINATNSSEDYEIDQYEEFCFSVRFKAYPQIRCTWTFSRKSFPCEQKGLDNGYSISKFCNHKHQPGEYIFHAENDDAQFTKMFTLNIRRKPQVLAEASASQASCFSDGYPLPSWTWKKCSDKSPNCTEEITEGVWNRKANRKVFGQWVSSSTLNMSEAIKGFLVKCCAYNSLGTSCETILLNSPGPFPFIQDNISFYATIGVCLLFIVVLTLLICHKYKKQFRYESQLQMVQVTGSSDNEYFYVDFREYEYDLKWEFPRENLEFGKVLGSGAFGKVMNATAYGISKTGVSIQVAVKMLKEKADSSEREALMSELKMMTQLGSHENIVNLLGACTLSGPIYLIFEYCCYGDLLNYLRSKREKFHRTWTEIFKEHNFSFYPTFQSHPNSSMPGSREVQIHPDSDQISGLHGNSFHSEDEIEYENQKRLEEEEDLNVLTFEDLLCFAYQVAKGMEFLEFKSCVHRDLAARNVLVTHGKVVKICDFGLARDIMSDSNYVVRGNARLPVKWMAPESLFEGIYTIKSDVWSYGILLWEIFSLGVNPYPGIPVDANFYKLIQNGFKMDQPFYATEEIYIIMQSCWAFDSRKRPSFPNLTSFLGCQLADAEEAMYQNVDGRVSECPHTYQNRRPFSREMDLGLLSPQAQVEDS

[8] = molecular target: Platelet-derived growth factor receptor alpha (Homo sapiens, UniProt P16234); experiment: Inhibition of PDGFRalpha (unknown origin) after 30 mins by HTRF assay
[9] = molecular target: Macrophage-stimulating protein receptor (Homo sapiens, UniProt Q04912); experiment: Inhibition of Ron (unknown origin) after 30 mins by HTRF assay
[10] = molecular target: Vascular endothelial growth factor receptor 2 (Homo sapiens, UniProt P35968); experiment: Inhibition of VEGFR2 (unknown origin) after 30 mins by HTRF assay
[11] = molecular target: Epidermal growth factor receptor (Homo sapiens, UniProt P00533); experiment: Inhibition of EGFR (unknown origin) after 30 mins by HTRF assay
Homo sapiens = species: Homo sapiens; experiment: Selectivity ratio of IC50 for VEGFR2 (unknown origin) to IC50 for c-MET (unknown origin)
MKN-45 = experiment: Potency index, ratio of foretinib IC50 to compound IC50 for human MKN45 cells; type: functional
HT-29 = experiment: Potency index, ratio of foretinib IC50 to compound IC50 for human HT-29 cells; type: functional
[12] = Potency index, ratio of foretinib IC50 to compound IC50 for human H460 cells; type: functional
A549 = experiment: Potency index, ratio of foretinib IC50 to compound IC50 for human A549 cells; type: functional

Epidermal growth factor receptor, sequence (P00533 whole entry): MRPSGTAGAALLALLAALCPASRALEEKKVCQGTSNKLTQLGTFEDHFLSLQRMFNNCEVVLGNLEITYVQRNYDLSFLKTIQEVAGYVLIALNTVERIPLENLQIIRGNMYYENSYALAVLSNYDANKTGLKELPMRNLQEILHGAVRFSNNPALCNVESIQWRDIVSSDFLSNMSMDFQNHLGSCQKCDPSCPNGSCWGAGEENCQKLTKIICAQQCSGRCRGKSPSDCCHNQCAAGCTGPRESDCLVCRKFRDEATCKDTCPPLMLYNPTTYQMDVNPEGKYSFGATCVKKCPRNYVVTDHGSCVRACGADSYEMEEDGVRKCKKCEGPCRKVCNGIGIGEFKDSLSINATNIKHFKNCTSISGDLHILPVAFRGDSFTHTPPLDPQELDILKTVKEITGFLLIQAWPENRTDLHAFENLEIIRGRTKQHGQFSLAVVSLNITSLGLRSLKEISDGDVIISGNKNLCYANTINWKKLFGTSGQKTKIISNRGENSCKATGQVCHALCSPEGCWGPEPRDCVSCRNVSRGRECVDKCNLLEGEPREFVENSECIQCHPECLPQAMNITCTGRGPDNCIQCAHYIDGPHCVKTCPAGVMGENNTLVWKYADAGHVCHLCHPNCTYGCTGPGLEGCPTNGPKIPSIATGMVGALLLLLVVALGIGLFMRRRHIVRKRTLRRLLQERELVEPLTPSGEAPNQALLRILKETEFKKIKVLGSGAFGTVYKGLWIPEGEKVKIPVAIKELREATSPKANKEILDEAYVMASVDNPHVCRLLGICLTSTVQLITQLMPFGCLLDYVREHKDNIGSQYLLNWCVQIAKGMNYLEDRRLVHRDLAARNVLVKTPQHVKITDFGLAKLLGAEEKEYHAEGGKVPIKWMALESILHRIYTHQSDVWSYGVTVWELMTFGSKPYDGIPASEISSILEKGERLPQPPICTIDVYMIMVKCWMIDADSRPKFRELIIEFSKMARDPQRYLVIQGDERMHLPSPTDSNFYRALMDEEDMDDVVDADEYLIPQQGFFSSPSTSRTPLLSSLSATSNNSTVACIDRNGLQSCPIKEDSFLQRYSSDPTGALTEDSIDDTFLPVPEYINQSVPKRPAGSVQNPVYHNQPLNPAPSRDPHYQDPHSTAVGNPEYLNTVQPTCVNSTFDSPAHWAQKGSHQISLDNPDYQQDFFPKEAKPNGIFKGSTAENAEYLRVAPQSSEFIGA
Vascular endothelial growth factor receptor 2, sequence (P35968 whole entry): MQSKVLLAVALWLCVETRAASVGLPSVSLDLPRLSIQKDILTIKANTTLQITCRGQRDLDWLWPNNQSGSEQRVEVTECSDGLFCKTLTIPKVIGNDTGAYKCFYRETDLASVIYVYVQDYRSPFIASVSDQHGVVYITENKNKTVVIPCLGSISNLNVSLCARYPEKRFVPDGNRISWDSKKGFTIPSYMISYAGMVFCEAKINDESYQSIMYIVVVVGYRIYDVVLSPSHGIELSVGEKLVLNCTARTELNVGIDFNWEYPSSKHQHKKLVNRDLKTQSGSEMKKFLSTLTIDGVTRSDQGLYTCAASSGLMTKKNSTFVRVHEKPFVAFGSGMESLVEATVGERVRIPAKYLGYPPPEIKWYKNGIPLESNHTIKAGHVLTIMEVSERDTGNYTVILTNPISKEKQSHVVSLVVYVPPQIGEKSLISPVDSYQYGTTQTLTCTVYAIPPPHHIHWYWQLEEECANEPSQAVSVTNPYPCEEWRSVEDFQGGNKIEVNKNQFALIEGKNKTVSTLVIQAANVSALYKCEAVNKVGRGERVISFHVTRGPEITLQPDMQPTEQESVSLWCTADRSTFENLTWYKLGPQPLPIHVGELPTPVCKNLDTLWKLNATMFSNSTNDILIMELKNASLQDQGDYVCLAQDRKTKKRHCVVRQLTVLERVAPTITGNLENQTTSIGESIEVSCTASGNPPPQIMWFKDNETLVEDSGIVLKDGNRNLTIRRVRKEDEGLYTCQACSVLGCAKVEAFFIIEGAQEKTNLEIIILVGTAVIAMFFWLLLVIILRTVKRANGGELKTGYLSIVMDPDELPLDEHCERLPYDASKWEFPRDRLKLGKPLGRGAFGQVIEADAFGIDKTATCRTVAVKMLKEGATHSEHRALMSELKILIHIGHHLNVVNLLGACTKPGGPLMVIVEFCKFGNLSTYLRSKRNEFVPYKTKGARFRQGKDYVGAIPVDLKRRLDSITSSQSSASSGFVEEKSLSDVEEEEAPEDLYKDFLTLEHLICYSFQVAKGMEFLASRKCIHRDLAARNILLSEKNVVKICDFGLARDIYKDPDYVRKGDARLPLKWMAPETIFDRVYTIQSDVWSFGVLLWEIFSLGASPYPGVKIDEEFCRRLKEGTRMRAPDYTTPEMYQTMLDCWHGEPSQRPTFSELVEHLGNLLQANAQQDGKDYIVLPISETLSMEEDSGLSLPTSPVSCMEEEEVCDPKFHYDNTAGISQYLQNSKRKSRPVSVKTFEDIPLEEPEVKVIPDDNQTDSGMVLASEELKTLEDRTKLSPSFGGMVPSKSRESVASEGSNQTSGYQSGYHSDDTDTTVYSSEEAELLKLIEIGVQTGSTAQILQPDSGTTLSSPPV
Platelet-derived growth factor receptor alpha, sequence (P16234 whole entry): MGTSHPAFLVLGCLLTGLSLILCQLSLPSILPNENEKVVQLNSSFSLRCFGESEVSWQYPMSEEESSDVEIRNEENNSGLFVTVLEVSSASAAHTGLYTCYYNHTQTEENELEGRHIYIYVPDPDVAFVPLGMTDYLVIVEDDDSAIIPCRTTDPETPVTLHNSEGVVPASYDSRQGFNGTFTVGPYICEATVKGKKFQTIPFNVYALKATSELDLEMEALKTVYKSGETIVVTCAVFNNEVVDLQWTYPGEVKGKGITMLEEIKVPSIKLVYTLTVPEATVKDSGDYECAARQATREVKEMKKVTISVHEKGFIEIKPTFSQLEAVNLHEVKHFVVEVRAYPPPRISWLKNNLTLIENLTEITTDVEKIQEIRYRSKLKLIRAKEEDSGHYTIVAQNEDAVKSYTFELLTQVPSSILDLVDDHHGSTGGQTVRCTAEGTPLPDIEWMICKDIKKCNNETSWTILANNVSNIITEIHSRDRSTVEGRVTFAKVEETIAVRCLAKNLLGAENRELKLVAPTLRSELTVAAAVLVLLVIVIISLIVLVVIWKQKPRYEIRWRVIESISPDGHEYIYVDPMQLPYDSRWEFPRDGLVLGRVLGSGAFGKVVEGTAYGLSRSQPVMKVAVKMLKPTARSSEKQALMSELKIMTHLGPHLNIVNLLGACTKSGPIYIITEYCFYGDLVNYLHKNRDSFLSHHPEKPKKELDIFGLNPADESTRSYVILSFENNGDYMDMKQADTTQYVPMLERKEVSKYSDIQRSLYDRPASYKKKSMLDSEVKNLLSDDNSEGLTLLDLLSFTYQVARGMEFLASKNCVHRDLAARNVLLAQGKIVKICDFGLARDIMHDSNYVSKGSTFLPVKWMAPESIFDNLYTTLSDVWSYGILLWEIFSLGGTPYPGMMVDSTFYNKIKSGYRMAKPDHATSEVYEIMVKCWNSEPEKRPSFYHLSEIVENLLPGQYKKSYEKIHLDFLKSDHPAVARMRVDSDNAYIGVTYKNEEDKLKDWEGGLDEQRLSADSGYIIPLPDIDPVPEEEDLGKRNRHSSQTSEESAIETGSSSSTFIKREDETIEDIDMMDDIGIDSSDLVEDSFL
Hepatocyte growth factor receptor, sequence (P08581 whole entry): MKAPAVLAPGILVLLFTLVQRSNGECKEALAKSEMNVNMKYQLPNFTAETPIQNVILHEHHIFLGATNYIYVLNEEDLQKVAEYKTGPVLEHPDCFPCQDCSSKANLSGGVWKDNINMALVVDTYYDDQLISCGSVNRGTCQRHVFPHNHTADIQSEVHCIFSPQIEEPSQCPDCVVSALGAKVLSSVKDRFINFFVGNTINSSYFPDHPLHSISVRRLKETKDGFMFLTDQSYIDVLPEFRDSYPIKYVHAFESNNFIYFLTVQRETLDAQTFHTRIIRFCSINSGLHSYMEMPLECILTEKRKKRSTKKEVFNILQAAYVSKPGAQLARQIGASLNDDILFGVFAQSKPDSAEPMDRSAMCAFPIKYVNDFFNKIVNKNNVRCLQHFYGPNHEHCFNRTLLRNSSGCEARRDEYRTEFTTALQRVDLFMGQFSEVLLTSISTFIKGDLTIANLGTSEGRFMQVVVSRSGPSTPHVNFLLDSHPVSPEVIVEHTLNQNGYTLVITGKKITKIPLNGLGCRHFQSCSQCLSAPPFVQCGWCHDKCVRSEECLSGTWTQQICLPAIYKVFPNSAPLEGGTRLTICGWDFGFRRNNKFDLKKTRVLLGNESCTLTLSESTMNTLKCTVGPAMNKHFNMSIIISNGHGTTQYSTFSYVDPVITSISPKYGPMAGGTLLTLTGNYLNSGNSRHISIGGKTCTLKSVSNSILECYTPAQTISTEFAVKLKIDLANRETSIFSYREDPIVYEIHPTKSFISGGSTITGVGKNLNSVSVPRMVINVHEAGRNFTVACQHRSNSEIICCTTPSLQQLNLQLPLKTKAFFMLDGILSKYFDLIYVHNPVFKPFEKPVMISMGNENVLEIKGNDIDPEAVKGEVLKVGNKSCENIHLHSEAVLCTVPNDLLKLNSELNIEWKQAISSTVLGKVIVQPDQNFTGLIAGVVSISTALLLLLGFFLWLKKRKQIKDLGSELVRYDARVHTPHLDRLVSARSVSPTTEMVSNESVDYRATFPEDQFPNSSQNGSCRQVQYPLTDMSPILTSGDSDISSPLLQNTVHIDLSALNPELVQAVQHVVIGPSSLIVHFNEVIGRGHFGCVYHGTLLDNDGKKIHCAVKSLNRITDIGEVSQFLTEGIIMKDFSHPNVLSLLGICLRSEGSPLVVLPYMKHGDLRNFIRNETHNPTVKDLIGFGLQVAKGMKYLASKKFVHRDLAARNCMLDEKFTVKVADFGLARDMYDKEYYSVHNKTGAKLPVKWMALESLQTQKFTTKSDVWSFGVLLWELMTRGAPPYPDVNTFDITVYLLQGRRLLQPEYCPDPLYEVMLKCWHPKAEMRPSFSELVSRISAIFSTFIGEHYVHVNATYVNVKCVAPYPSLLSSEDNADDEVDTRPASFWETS

| Structure (SMILES) | IC50 [1] | IC50 [2] | IC50 [3] | IC50 [4] | Ratio IC50 (Homo sapiens) | other results |
| --- | --- | --- | --- | --- | --- | --- |
| COc1cc2c(Oc3ccc(NC(=O)c4nn(-c5ccccc5F)c(=O)n4C)cc3F)ccnc2cc1OCCCN1CCN(C)CC1 | 80 nM | 140 nM | 110 nM | 30 nM | 306 | IC50 [5]: 1.57 nM; IC50 [6]: 3.38 nM; IC50 [7]: 8.19 nM; IC50 [8]: 95.2 nM; IC50 [9]: 141 nM; IC50 [10]: 480 nM; IC50 [11]: > 10000 nM; Ratio IC50 (MKN-45): 1.1 - 2.3; Ratio IC50 (HT-29): 1.1 - 2.3; Ratio IC50 [12]: 1.1 - 2.3; Ratio IC50 (A549): 1.1 - 2.3 |
| COc1cc2c(Oc3ccc(N/C=C4\C(=O)N(c5ccccc5C(F)(F)F)N=C4C)cc3F)ccnc2cc1OCCCN1CCOCC1 | – | – | – | – | 172 | – |
| COc1cc2c(Oc3ccc(NC(=O)c4nn(-c5ccccc5OC(F)(F)F)c(=O)n4C4CC4)cc3F)ccnc2cc1OCCCN1CCN(C)CC1 | 90 nM | 180 nM | 110 nM | 61 nM | – | – |
| COc1cc2c(Oc3ccc(NC(=O)c4nn(-c5ccccc5)c(=O)n4C)cc3F)ccnc2cc1OCCCN1CCC(C)CC1 | 670 nM | 830 nM | 380 nM | 470 nM | – | – |
| COc1ccc(-n2nc(C(=O)Nc3ccc(Oc4ccnc5cc(OCCCN6CCN(C)CC6)c(OC)cc45)c(F)c3)n(C)c2=O)cc1 | 1280 nM | 2140 nM | 720 nM | 1650 nM | – | – |
| COc1cc2c(Oc3ccc(NC(=O)c4nn(-c5cccc(F)c5)c(=O)n4C)cc3F)ccnc2cc1OCCCN1CCN(C)CC1 | 290 nM | 310 nM | 280 nM | 410 nM | – | – |
| COc1cc2c(Oc3ccc(NC(=O)c4cn(-c5ccccc5Cl)nn4)cc3F)ccnc2cc1OCCCN1CCCCC1 | – | – | – | – | 53 | – |
| COc1cc2c(Oc3ccc(NC(=O)c4nn(-c5ccc(OC(F)F)cc5)c(=O)n4C)cc3F)ccnc2cc1OCCCN1CCCCC1 | 280 nM | 310 nM | 220 nM | 130 nM | – | – |
| COc1cc2c(Oc3ccc(NC(=O)c4nn(-c5ccc(F)cc5)c(=O)n4C)cc3F)ccnc2cc1OCCCN1CCOCC1 | 1230 nM | 810 nM | 400 nM | 640 nM | – | – |
